The target of data set [1] is T1, oestrone sulphatase (E1-STS) (Homo sapiens, UniProt P08842).
T1 sequence (P08842 22-583): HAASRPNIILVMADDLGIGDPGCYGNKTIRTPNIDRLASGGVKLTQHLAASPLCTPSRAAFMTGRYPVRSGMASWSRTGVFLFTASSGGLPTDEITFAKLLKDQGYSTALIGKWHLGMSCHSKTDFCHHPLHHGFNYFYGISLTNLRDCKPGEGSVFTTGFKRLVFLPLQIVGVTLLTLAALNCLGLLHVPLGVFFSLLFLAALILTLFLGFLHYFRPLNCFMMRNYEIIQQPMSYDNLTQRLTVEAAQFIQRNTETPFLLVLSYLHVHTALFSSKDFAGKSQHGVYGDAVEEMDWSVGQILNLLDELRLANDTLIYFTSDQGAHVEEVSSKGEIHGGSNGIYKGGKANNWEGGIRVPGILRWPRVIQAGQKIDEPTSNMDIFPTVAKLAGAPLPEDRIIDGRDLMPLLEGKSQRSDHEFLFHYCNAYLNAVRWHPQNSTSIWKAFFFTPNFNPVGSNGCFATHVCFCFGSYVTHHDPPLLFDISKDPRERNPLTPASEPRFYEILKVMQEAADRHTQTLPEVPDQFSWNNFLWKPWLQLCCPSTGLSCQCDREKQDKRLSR
The conditions noted are these: for E1-STS inhibitory potency compared with COUMATE: placental microsomes.

Data set [2] deals with T2, E1-STS (Homo sapiens, UniProt P08842).
T2 sequence (P08842 22-583): T1 sequence (P08842 22-583)
As to conditions: previous work, Ref. 28; cited from earlier work.

Data set [3] can be described thus: Chemical and thermal stability of coumarin sulphate. The data set is classed as physicochemical. As to conditions: sodium hydroxide in methanol.
Data set [4] addresses T2, E1-STS. Kind of data set: Substrate test: hydrolysis of coumarin sulphates by placental microsomes in absence or presence of EMATE. The conditions noted are these: 100 μg, 1 h, placental microsomes ± EMATE 10 μM.
Data set [5] deals with T1, oestrone sulphatase (E1-STS). In words: Time- and concentration-dependent inactivation of oestrone sulphatase in placental microsomes (preincubation). The format is biochemical.
In data set [6] the target is T3, E1-STS (Rattus norvegicus, UniProt P15589).
T3 construct: The E1-STS activity in the uteri obtained from these animals; from tissue; host or cells: uteri of ovariectomised rats dosed in vivo
T3 sequence (P15589 20-577): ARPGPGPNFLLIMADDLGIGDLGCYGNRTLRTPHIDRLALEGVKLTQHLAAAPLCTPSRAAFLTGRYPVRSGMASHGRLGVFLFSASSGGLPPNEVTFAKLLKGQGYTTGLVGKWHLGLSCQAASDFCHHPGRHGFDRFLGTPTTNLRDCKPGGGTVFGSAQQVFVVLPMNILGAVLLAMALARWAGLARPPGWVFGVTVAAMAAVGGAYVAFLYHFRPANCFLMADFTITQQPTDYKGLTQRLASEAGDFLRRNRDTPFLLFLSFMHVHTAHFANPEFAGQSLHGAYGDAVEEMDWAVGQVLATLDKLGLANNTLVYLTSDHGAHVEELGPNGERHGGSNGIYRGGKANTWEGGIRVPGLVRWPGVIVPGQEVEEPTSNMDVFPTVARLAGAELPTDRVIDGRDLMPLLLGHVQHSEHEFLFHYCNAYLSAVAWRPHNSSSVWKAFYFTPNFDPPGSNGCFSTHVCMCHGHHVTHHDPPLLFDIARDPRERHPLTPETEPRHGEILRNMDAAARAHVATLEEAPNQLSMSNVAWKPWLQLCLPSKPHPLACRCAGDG
Kind of data set: E1-STS activity in uteri of treated ovariectomised rats. The format is in vivo. As to conditions: 1 mg/kg s.c. for 5 days.

For the next data set, the system named is ovariectomised rats. Kind of data set: Oestrogenic activity: uterine weight in ovariectomised rats. The format is in vivo, rat. The conditions noted are these: 1 mg/kg s.c. for 5 days.
The target of another data set is T4, oestrone sulphatase (Rattus norvegicus, UniProt P15589).
T4 construct: from tissue; host or cells: white blood cells of orally dosed rats
T4 sequence (P15589 20-577): T3 sequence (P15589 20-577)
In words: Sulphatase activity in white blood cells of rats after oral dosing. The data set is classed as in vivo.

Data set [7] concerns ovariectomized rats. The conditions noted are these: oral, from Ref. 31; cited from earlier work.
Data set [8] addresses T1, oestrone sulphatase (E1-STS). As to conditions: cited from earlier work.
The conditions of data set [9]: in vivo; cited from earlier work.
Data set [10] deals with T1, oestrone sulphatase (E1-STS). In words: Inhibition of oestrone sulphatase (E1-STS) in intact MCF-7 breast cancer cells. The conditions noted are these: 10 μM.
Data set [11] relates to ovariectomized rats. Kind of data set: Oestrogenicity after oral administration: E1S-stimulated uterine growth in ovariectomized rats. The data set is classed as in vivo, rat. The source says:
The oestrogenic activity of 17 was also studied.

Data set [12] has as its target T1, oestrone sulphatase (E1-STS). As to conditions: cited from earlier work; for Mode of E1-STS inhibition: literature.
Another data set has as its target T5, rat liver DHA-STS (Rattus norvegicus, UniProt P15589).
T5 construct: host or cells: rat liver, after dosing in vivo
T5 sequence (P15589 20-577): T3 sequence (P15589 20-577)
The conditions noted are these: administered orally or subcutaneously; cited from earlier work.

The target in data set [13] is T6, dehydroepiandrosterone sulphatase (DHA-STS) (Homo sapiens, UniProt P08842).
T6 sequence (P08842 22-583): T1 sequence (P08842 22-583)
As to conditions: read-out: IC50 for inhibition of DHEA sulphatase in placental microsomes; from Ref. 25; cited from earlier work.

Data set [14] addresses T1, oestrone sulphatase (E1-STS). Also noted: endogenous in cells; host or cells: MCF-7 breast cancer cells. The conditions noted are these: 0.1 μM; cited from earlier work.

pIC50: −log10 of the molar value. Where two headings read alike, the source gives them in different places.

One may read the melting point as the temperature of the solid-liquid transition. As a reminder, the pIC50 is the negative decadic logarithm of the IC50, by convention in mol/L.

Regarding `CCCc1c(C)c2ccc(OS(N)(=O)=O)cc2oc1=O` [compound 11, 4Methyl-3-(n-propyl)coumarin-7-O-sulphamate], the “% Inhibition ± S.D. of E1-STS activity in placental microsomes” value (shortened to “% Inhibition ± S.D. of E1-STS activity”) in data set [1] (0.1 μM (Table 1)) was 83 ± 1%; in [1] (1 μM (Table 1)), 97 ± 1%; in [1] (10 μM (Table 1)), over 99%. For the same compound, the “E1-STS inhibitory potency compared with COUMATE” value in data set [1] is on record as “more potent E1-STS inhibitors than COUMATE”.
For the compound `Cc1cc(=O)oc2cc(OS(=O)(=O)[O-])ccc12.[Na+]` [compound 12, 7-(Sulphoxy)-4-Methylcoumarin, sodium salt], the melting point is 172 to 175 °C (dec.). Further, at E1-STS [2], the “Substrate for E1-STS” value is listed as “substrate for E1-STS”. Moreover, the “Stability in basic and acidic conditions” value in data set [3] was “stable in bases such as sodium hydroxide in methanol but not in acidic conditions”. Moreover, the “Substrate for E1-STS” value on E1-STS [4] is on record as “the coumarin sulphate is indeed a substrate for the sulphatase”.
As for `O=c1oc2cc(OS(=O)(=O)O)ccc2c2c1CCCCC2` [compound 18, 6-Oxo-3-sulfooxy-8,9,10,11-tetrahydro-7H-cyclohepta-[c][1]-benzopyran], at E1-STS [4], the “Substrate for E1-STS” value is reported as “is a substrate for this enzyme”.
In the case of `Cc1cc(=O)oc2cc(OS(N)(=O)=O)ccc12` [compound 14], the “Mode of E1-STS inhibition” value in [5] was “time- and concentration-dependent manner in a biphasic fashion”. The “Inhibition of E1-STS activity in uteri compared with untreated animals” value on E1-STS [6] came to 89.4%. For the same compound, the “Effect on uterine weight (oestrogenic activity)” value in the data set with ovariectomised rats is given as “did not result in any significant increase in the uterine weight”. In addition, the “Oral activity in rats” value on oestrone sulphatase is on record as “potent oral activity”. In addition, the “% Inhibition of sulphatase activity in white blood cells, MD” value on oestrone sulphatase (daily for seven days 0.1 mg/kg) came to 65%; at oestrone sulphatase (daily for seven days 1.0 mg/kg), 85%; on oestrone sulphatase (daily for seven days 10.0 mg/kg) it was 89%. In the data set with ovariectomized rats [7], the “Oestrogenicity” value is “devoid of oestrogenicity”. Moreover, the “% Inhibition ± S.D. of E1-STS activity” value in data set [8] (0.1 μM (Table 1, reproduced from Ref. 28)) is given as under 10%; in [8] (1 μM (Table 1, reproduced from Ref. 28)) it was 63 ± 1%.
For the compound Coumarin-7-O-sulphamate [compound 13], the “% Inhibition ± S.D. of E1-STS activity” value in data set [8] (10 μM (Table 1, reproduced from Ref. 28)) is 78 ± 1%. Besides, the “% Inhibition of E1-STS activity in placental microsomes” value in data set [8] (50 μM (footnote a, Ref. 28)) is on record as over 90%.
For the compound `C[C@]12CC[C@@H]3c4ccc(OS(=O)(=O)O)cc4CC[C@H]3[C@@H]1CCC2=O` [E1S, oestrone sulphate], the Half-life in blood in [9] is 10 to 12 h.
Take `NS(=O)(=O)Oc1ccc2c(C(F)(F)F)cc(=O)oc2c1` [compound 16]: the “% inhibition of E1-STS in intact MCF-7 cells” value in data set [10] turned out to be 71.5%.
Regarding `NS(=O)(=O)Oc1ccc2c3c(c(=O)oc2c1)CCCCCC3` [compound 20, 6-Oxo-7,8,9,10,11,12-hexahydro-cycloocta-[c][1]benzopyran-3-O-sulphamate], the “% Inhibition ± S.D. of E1-STS activity” value is given as 17 ± 2% in data set [1] (0.01 μM (Table 2)), 89 ± 1% in data set [1] (0.1 μM (Table 2)) and over 99% in [1] (1 μM (Table 2)). Besides, in [1] (1 μM), the “Inhibition of E1-STS in placental microsomes” value was “almost complete inhibition”.
Regarding `NS(=O)(=O)Oc1ccc2c3c(c(=O)oc2c1)CCCCC3` [compound 17, 6-Oxo-8,9,10,11-tetrahydro-7H-cyclohepta-[c][1]benzopyran-3-O-sulphamate], the figures for the “Oestrogenicity” value in the data set with ovariectomized rats [11] and with ovariectomized rats [11] (listed as 667COUMATE) were “devoid of oestrogenicity” and “not being oestrogenic”, respectively.
With oestrone-3-N-sulphamate, the “Mode of E1-STS inhibition” value in [12] is given as “weaker non-time-dependent inactivators”.
`C[C@]12CC[C@@H]3c4ccc(OS(N)(=O)=O)cc4CC[C@H]3[C@@H]1CCC2=O` [EMATE, oestrone-3-sulphamate]: the “Inhibition of rat liver DHA-STS activity” value at rat liver DHA-STS was 99%. Further, the pIC50 was 7.60 in data set [1] and 6.96 in data set [13]. Further, the “% inhibition of E1-STS activity in intact MCF-7 cells” value in data set [14] was “more than 99%”. Also, the “Mode of E1-STS inhibition” value in [12] is “time- and concentration-dependent manner”. Further, the KI (inactivation) in data set [12] (read-out: Apparent Ki for E1-STS inactivation, from Ref. 25) is 670 nM.
Take `CCc1cc(=O)oc2cc(OS(N)(=O)=O)ccc12` [compound 4, 4-Ethylcoumarin-7-O-sulphamate]: the “% Inhibition ± S.D. of E1-STS activity” value in data set [1] (0.1 μM (Table 1)) is listed as 35 ± 1%; in data set [1] (1 μM (Table 1)), 88 ± 1%; in [1] (10 μM (Table 1)) it was over 99%. Also, the “E1-STS inhibitory potency compared with COUMATE” value in [1] is reported as “more potent E1-STS inhibitors than COUMATE”.
For `CCc1c(C)c2ccc(OS(N)(=O)=O)cc2oc1=O` [compound 8, 3-Ethyl-4-methylcoumarin-7-O-sulphamate], in that order: 57 ± 1%, 96 ± 1%, over 99% and “more potent E1-STS inhibitors than COUMATE”.
For `CCCc1cc(=O)oc2cc(OS(N)(=O)=O)ccc12` [compound 6, 4-(n-Propyl)coumarin-7-O-sulphamate] the same measures were 42 ± 2%, 94 ± 1%, 96 ± 1% and “more potent E1-STS inhibitors than COUMATE”.
Regarding `NS(=O)(=O)Oc1ccc2c(c1)OC(=O)CC1=C2CCCC1` [compound 22, 6-Oxo-6,7,8,9,10,11-hexahydrodibenz[b,d]oxepin-3-O-sulphamate], the “% Inhibition ± S.D. of E1-STS activity” value was under 10% in [1] (0.01 μM (Table 2)), 31 ± 5% in [1] (0.1 μM (Table 2)) and 94 ± 2% in data set [1] (1 μM (Table 2)).
Consider oestrone-3-S-sulphamate, for which the “Mode of E1-STS inhibition” value in data set [12] is listed as “weaker non-time-dependent inactivators”.

The record behind these values is patent US6921776B1, “Compound” (Sterix Limited, priority 1996, dated 2005).
